Patent US9302999B2, “Substituted triazoles as herbicides” (E. I. DU PONT DE NEMOURS AND COMPANY, priority 2012, dated 2016)

Assays:
Format in all cases: in vivo
[1] = test system: large crabgrass (Digitaria sanguinalis); test: Test C pre-/postemergence: large crabgrass
In short: (§1)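 Preemergence on seeds in loam/sand, postemergence on 2–18 cm (1–4-leaf) plants in peat-based medium; compounds in non-phytotoxic solvent with surfactant. After 13–15 days in greenhouse, visual rating versus controls, 0 (no effect) to 100 (complete control).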

[2] = test system: morningglory (Ipomoea coccinea); test: Test C pre-/postemergence: morningglory
In short: as §1

[3] = test system: ryegrass, Italian (Italian ryegrass, Lolium multiflorum); test: Test C pre-/postemergence: ryegrass, Italian
In short: as §1

[4] = test system: velvetleaf (Abutilon theophrasti); test: Test C pre-/postemergence: velvetleaf
In short: as §1

kochia (Kochia scoparia) = test: Test C pre-/postemergence: kochia; conditions: Postemergence
In short: as §1

[5] = test system: ducksalad (Heteranthera limosa); test: Test B flooded paddy: ducksalad; conditions: Flood; 250 g ai/ha; applied to paddy water at 2-leaf stage; visually evaluated after 13 to 15 days
In short: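 Response scored visually, 0–100 relative to controls, 13–15 days after the compound was applied into paddy water; plants were at the 2-leaf stage in pots kept flooded to 3 cm.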

[6] = test system: galium (catchweed bedstraw, Galium aparine); test: Test C pre-/postemergence: galium
In short: as §1

corn (Zea mays) = test: Test C pre-/postemergence: corn
In short: as §1

[7] = test system: johnsongrass (Sorghum halepense); test: Test C pre-/postemergence: johnsongrass
In short: as §1

[8] = test system: foxtail, giant (giant foxtail, Setaria faberii); test: Test C pre-/postemergence: foxtail, giant
In short: as §1

wild oat (Avena fatua) = test: Test C pre-/postemergence: wild oat; conditions: Postemergence
In short: as §1

[9] = Postemergence, 31 g ai/ha, scale 0 to 100 (0 no effect, 100 complete control)
[10] = Postemergence, 62 g ai/ha, scale 0 to 100 (0 no effect, 100 complete control)
[11] = Postemergence, 125 g ai/ha, scale 0 to 100, 0 no effect, 100 complete control
[12] = Postemergence, 250 g ai/ha, scale 0 to 100
[13] = Preemergence, 31 g ai/ha, scale 0 (no effect) to 100 (complete control)
[14] = Preemergence, 62 g ai/ha, scale of 0 to 100, 0 is no effect, 100 is complete control
[15] = Preemergence, 125 g ai/ha, scale 0 to 100, 0 no effect, 100 complete control
[16] = Preemergence, 250 g ai/ha, scale 0 to 100, 0 no effect, 100 complete control
[17] = Postemergence, 250 g ai/ha, scale 0 to 100 (0 no effect, 100 complete control)
[18] = 31 g ai/ha, scale 0 to 100 (0 no effect, 100 complete control)
[19] = 62 g ai/ha, scale 0 to 100 (0 no effect, 100 complete control)
[20] = 125 g ai/ha, scale 0 to 100, 0 no effect, 100 complete control
[21] = 250 g ai/ha, scale 0 to 100 (0 no effect, 100 complete control)

`CCCc1nn(-c2ccc(C(F)(F)F)cc2)nc1Oc1ccnc(C(F)(F)F)c1` [Compound 170] was tested, and the “Plant response rating, Crabgrass, Large” value [1, 9] was 30, the “Plant response rating, Crabgrass, Large” value [1, 10] was 30 and the “Plant response rating, Crabgrass, Large” value [1, 11] was 80. The “Plant response rating, Crabgrass, Large” value [1, 12] was 90, the “Plant response rating, Crabgrass, Large” value [1, 13] was 100 and the “Plant response rating, Crabgrass, Large” value [1, 14] was 100. For the same molecule, the “Plant response rating, Crabgrass, Large” value [1, 15] was 100, the “Plant response rating, Crabgrass, Large” value [1, 16] was 100 and the “Plant response rating, Morningglory” value [2, 9] was 75. For the same molecule, the “Plant response rating, Morningglory” value [2, 10] was 98, the “Plant response rating, Morningglory” value [2, 11] was 100 and the “Plant response rating, Morningglory” value [2, 17] was 100. The “Plant response rating, Morningglory” value [2, 13] was 35, the “Plant response rating, Morningglory” value [2, 14] was 55 and the “Plant response rating, Morningglory” value [2, 15] was 100. For the same molecule, the “Plant response rating, Morningglory” value [2, 16] was 100, the “Plant response rating, Ryegrass, Italian” value [3, 9] was 15 and the “Plant response rating, Ryegrass, Italian” value [3, 10] was 35. The “Plant response rating, Ryegrass, Italian” value [3, 11] was 35, the “Plant response rating, Ryegrass, Italian” value [3, 17] was 70 and the “Plant response rating, Ryegrass, Italian” value [3, 13] was 55. For the same molecule, the “Plant response rating, Ryegrass, Italian” value [3, 14] was 90, the “Plant response rating, Ryegrass, Italian” value [3, 15] was 95 and the “Plant response rating, Ryegrass, Italian” value [3, 16] was 95. For the same molecule, the “Plant response rating, Velvetleaf” value [4, 9] was 75, the “Plant response rating, Velvetleaf” value [4, 10] was 85 and the “Plant response rating, Velvetleaf” value [4, 11] was 85. The “Plant response rating, Velvetleaf” value [4, 17] was 90, the “Plant response rating, Velvetleaf” value [4, 13] was 60 and the “Plant response rating, Velvetleaf” value [4, 14] was 100. The “Plant response rating, Velvetleaf” value [4, 15] was 100, the “Plant response rating, Velvetleaf” value [4, 16] was 100 and the “Plant response rating, Kochia” value (kochia (Kochia scoparia); [18]) was 90. The “Plant response rating, Kochia” value (kochia (Kochia scoparia); [19]) was 90, the “Plant response rating, Kochia” value (kochia (Kochia scoparia); [20]) was 90 and the “Plant response rating, Kochia” value (kochia (Kochia scoparia); [21]) was 90. For the same molecule, the “Plant response rating, Ducksalad (0 to 100 scale, 0 is no effect, 100 is complete control)” value [5] was 35, the “Plant response rating, Galium” value [6, 9] was 80 and the “Plant response rating, Galium” value [6, 10] was 90. The “Plant response rating, Galium” value [6, 11] was 90, the “Plant response rating, Galium” value [6, 17] was 90 and the “Plant response rating, Galium” value [6, 13] was 98. For the same molecule, the “Plant response rating, Galium” value [6, 14] was 100, the “Plant response rating, Galium” value [6, 15] was 100 and the “Plant response rating, Galium” value [6, 16] was 100. The “Plant response rating, Corn” value (corn (Zea mays); [9]) was 15, the “Plant response rating, Corn” value (corn (Zea mays); [10]) was 25 and the “Plant response rating, Corn” value (corn (Zea mays); [11]) was 30. For the same molecule, the “Plant response rating, Corn” value (corn (Zea mays); [12]) was 30, the “Plant response rating, Corn” value (corn (Zea mays); [13]) was 5 and the “Plant response rating, Corn” value (corn (Zea mays); [14]) was 10. The “Plant response rating, Corn” value (corn (Zea mays); [15]) was 15, the “Plant response rating, Corn” value (corn (Zea mays); [16]) was 60 and the “Plant response rating, Johnsongrass” value [7, 9] was 20. For the same molecule, the “Plant response rating, Johnsongrass” value [7, 10] was 25, the “Plant response rating, Johnsongrass” value [7, 11] was 80 and the “Plant response rating, Johnsongrass” value [7, 17] was 98. The “Plant response rating, Johnsongrass” value [7, 13] was 50, the “Plant response rating, Johnsongrass” value [7, 14] was 75 and the “Plant response rating, Johnsongrass” value [7, 15] was 95. The “Plant response rating, Johnsongrass” value [7, 16] was 95, the “Plant response rating, Foxtail, Giant” value [8, 9] was 55 and the “Plant response rating, Foxtail, Giant” value [8, 10] was 80. For the same molecule, the “Plant response rating, Foxtail, Giant” value [8, 11] was 98, the “Plant response rating, Foxtail, Giant” value [8, 12] was 98 and the “Plant response rating, Foxtail, Giant” value [8, 13] was 98. For the same molecule, the “Plant response rating, Foxtail, Giant” value [8, 14] was 100, the “Plant response rating, Foxtail, Giant” value [8, 15] was 100 and the “Plant response rating, Foxtail, Giant” value [8, 16] was 100. The “Plant response rating, Oat, Wild” value (wild oat (Avena fatua); [18]) was 30, the “Plant response rating, Oat, Wild” value (wild oat (Avena fatua); [19]) was 65 and the “Plant response rating, Oat, Wild” value (wild oat (Avena fatua); [20]) was 85. For the same molecule, the “Plant response rating, Oat, Wild” value (wild oat (Avena fatua); [21]) was 90.

In the case of `CCc1nn(-c2ccc(F)c(F)c2)nc1Oc1ccnc(C(F)(F)F)c1` [Compound 171], the “Plant response rating, Crabgrass, Large” value [1, 9] is reported as 15, the “Plant response rating, Crabgrass, Large” value [1, 10] is reported as 20 and the “Plant response rating, Crabgrass, Large” value [1, 11] is reported as 40. The “Plant response rating, Crabgrass, Large” value [1, 12] was 55, the “Plant response rating, Crabgrass, Large” value [1, 13] was 85 and the “Plant response rating, Crabgrass, Large” value [1, 14] was 100. For the same molecule, the “Plant response rating, Crabgrass, Large” value [1, 15] was 100, the “Plant response rating, Crabgrass, Large” value [1, 16] was 100 and the “Plant response rating, Morningglory” value [2, 9] was 60. The “Plant response rating, Morningglory” value [2, 10] was 65, the “Plant response rating, Morningglory” value [2, 11] was 98 and the “Plant response rating, Morningglory” value [2, 13] was 0. For the same molecule, the “Plant response rating, Morningglory” value [2, 14] was 20, the “Plant response rating, Morningglory” value [2, 15] was 25 and the “Plant response rating, Morningglory” value [2, 16] was 25. The “Plant response rating, Ryegrass, Italian” value [3, 9] was 5, the “Plant response rating, Ryegrass, Italian” value [3, 10] was 5 and the “Plant response rating, Ryegrass, Italian” value [3, 11] was 10. The “Plant response rating, Ryegrass, Italian” value [3, 17] was 10, the “Plant response rating, Ryegrass, Italian” value [3, 13] was 10 and the “Plant response rating, Ryegrass, Italian” value [3, 14] was 50. The “Plant response rating, Ryegrass, Italian” value [3, 15] was 60, the “Plant response rating, Ryegrass, Italian” value [3, 16] was 100 and the “Plant response rating, Velvetleaf” value [4, 9] was 25. For the same molecule, the “Plant response rating, Velvetleaf” value [4, 10] was 25, the “Plant response rating, Velvetleaf” value [4, 11] was 45 and the “Plant response rating, Velvetleaf” value [4, 17] was 75. The “Plant response rating, Velvetleaf” value [4, 13] was 5, the “Plant response rating, Velvetleaf” value [4, 14] was 25 and the “Plant response rating, Velvetleaf” value [4, 15] was 55. For the same molecule, the “Plant response rating, Velvetleaf” value [4, 16] was 65, the “Plant response rating, Kochia” value (kochia (Kochia scoparia); [18]) was 90 and the “Plant response rating, Kochia” value (kochia (Kochia scoparia); [19]) was 90. For the same molecule, the “Plant response rating, Kochia” value (kochia (Kochia scoparia); [20]) was 90, the “Plant response rating, Kochia” value (kochia (Kochia scoparia); [21]) was 90 and the “Plant response rating, Ducksalad (0 to 100 scale, 0 is no effect, 100 is complete control)” value [5] was 0. For the same molecule, the “Plant response rating, Galium” value [6, 9] was 70, the “Plant response rating, Galium” value [6, 10] was 75 and the “Plant response rating, Galium” value [6, 11] was 80. For the same molecule, the “Plant response rating, Galium” value [6, 17] was 80, the “Plant response rating, Galium” value [6, 13] was 5 and the “Plant response rating, Galium” value [6, 14] was 98. For the same molecule, the “Plant response rating, Galium” value [6, 15] was 98, the “Plant response rating, Galium” value [6, 16] was 100 and the “Plant response rating, Corn” value (corn (Zea mays); [9]) was 15. The “Plant response rating, Corn” value (corn (Zea mays); [10]) was 15, the “Plant response rating, Corn” value (corn (Zea mays); [11]) was 15 and the “Plant response rating, Corn” value (corn (Zea mays); [12]) was 15. For the same molecule, the “Plant response rating, Corn” value (corn (Zea mays); [13]) was 0, the “Plant response rating, Corn” value (corn (Zea mays); [14]) was 0 and the “Plant response rating, Corn” value (corn (Zea mays); [15]) was 5. The “Plant response rating, Corn” value (corn (Zea mays); [16]) was 25, the “Plant response rating, Johnsongrass” value [7, 9] was 15 and the “Plant response rating, Johnsongrass” value [7, 10] was 15. For the same molecule, the “Plant response rating, Johnsongrass” value [7, 11] was 25, the “Plant response rating, Johnsongrass” value [7, 17] was 25 and the “Plant response rating, Johnsongrass” value [7, 13] was 0. The “Plant response rating, Johnsongrass” value [7, 14] was 25, the “Plant response rating, Johnsongrass” value [7, 15] was 75 and the “Plant response rating, Johnsongrass” value [7, 16] was 95. The “Plant response rating, Foxtail, Giant” value [8, 9] was 25, the “Plant response rating, Foxtail, Giant” value [8, 10] was 35 and the “Plant response rating, Foxtail, Giant” value [8, 11] was 55. The “Plant response rating, Foxtail, Giant” value [8, 12] was 70, the “Plant response rating, Foxtail, Giant” value [8, 13] was 98 and the “Plant response rating, Foxtail, Giant” value [8, 14] was 100. The “Plant response rating, Foxtail, Giant” value [8, 15] was 100, the “Plant response rating, Foxtail, Giant” value [8, 16] was 100 and the “Plant response rating, Oat, Wild” value (wild oat (Avena fatua); [18]) was 5. For the same molecule, the “Plant response rating, Oat, Wild” value (wild oat (Avena fatua); [19]) was 5, the “Plant response rating, Oat, Wild” value (wild oat (Avena fatua); [20]) was 10 and the “Plant response rating, Oat, Wild” value (wild oat (Avena fatua); [21]) was 20.
